Assay results taken from PMC11623267, “Inhibitors of malaria parasite cyclic nucleotide phosphodiesterases block asexual blood-stage development and mosquito transmission” (Science Advances, 2024).

What was measured:
P. falciparum 3D7 [1] = experiment: P. falciparum 3D7 LDH growth inhibition assay (asexual blood stage); format: cell-based, Plasmodium falciparum; conditions: Plasmodium falciparum, 3D7, read-out: EC50 against ABS parasites
Protocol: (§1) P. falciparum isolates (3D7/Dd2) were obtained from BEI Resources and were cultured using standard procedures as described elsewhere ([47]). Briefly, P. falciparum was grown in RPMI 1640 medium (10.3 g/liter) supplemented with L-glutamine (2 mM), hypoxanthine (150 μM), Hepes (25 mM), D-glucose (12 mM), sodium bicarbonate (25.7 mM), AlbuMAX II (0.5% or 5 g/liter) (pH 7.4), and 2% RBC (type O+, freshly prepared). Cultures were replenished with fresh medium and RBCs every other day. For RBC preparation, whole blood was centrifuged at 415g at room temperature for 12 min. After that, the plasma and buffy coat were removed, and packed RBCs were washed three times with 3 vol of RPMI 1640. Last, RBCs were resuspended in 1:1 vol of complete RPMI 1640 medium (containing 0.5% AlbuMAX II).
(§2) The P. falciparum 3D7 and Dd2 LDH growth inhibition assay was carried out as described elsewhere ([48]) with minor modification of the parasitological conditions (10 to 15% parasitemia with ≥80% rings). Data were normalized to percent growth inhibition with respect to […] (for 3D7, a mixture of 100 nM chloroquine and 100 nM atovaquone as 100% inhibition; for Dd2, a mixture of 200 nM DHA and 200 nM atovaquone as 100% inhibition) controls.

PDEβ = molecular target: T1, PDEβ (Plasmodium falciparum, UniProt Q8I6Z7); experiment: cAMP hydrolysis SPA in schizont membrane lysates; format: biochemical; conditions: read-out: IC50 against PDEβ
T1 construct: endogenous in cells; host or cells: P. falciparum 3D7 schizonts, NP-40 membrane lysate
T1 sequence (Q8I6Z7 whole entry): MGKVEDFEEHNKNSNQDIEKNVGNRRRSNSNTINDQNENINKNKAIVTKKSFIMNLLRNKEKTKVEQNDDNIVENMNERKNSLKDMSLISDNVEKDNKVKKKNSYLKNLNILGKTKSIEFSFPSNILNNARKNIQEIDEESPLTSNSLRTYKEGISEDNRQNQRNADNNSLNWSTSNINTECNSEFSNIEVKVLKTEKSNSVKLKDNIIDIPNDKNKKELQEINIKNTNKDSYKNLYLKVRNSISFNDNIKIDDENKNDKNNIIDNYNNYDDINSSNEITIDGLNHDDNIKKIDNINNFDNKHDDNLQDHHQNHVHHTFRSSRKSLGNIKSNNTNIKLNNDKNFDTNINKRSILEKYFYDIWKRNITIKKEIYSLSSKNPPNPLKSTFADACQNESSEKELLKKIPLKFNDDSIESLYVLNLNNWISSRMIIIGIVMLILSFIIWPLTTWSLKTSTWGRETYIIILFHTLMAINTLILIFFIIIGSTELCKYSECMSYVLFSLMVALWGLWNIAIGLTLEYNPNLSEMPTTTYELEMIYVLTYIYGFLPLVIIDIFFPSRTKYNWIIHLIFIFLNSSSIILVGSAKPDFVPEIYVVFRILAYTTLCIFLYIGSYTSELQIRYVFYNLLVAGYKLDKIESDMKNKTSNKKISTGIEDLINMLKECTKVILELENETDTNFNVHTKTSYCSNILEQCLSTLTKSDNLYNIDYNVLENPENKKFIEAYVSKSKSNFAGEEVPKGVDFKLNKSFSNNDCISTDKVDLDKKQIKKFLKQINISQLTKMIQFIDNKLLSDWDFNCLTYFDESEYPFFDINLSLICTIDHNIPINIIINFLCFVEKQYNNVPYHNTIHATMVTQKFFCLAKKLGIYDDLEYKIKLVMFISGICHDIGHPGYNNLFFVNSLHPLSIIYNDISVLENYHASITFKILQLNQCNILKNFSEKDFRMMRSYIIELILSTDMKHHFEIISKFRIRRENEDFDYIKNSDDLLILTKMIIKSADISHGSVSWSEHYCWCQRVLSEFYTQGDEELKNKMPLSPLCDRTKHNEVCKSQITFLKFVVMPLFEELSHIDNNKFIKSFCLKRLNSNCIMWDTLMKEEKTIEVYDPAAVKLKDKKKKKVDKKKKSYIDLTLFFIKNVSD
Excerpt: We identified three PDE inhibitor chemical series generated by Pfizer, with structures in the public domain, which have activity against malaria parasites (see the “Chemistry strategy summary” section). These series were originally designed to inhibit human PDEs and were chosen as chemistry start points to optimize activity against malaria parasites. More than 400 new analogs were generated (full details of their properties will be reported in a separate paper, in preparation) through iterative rounds of synthesis and testing. The chemistry start points for each of the series were SAL-0010042 (5-benzyl), SAL-0010043 (5-aryl), and SAL-0010034 (2-alkyl) (see Materials and Methods and fig. S1A). S2. Analytical data for these compounds are provided in data S1. All newly synthesized compounds were tested for inhibition of native cAMP-PDE activity in mature schizont crude membrane preparations and inhibition of P. falciparum ABS growth. S3A. […] The unbound EC50 values for the compounds in the parasite growth inhibition assay were consistently calculated to be sevenfold higher than the IC50 values in the biochemical assay. Given that PDEβ is dual specific (i.e., can hydrolyze both cAMP and cGMP), we also determined IC50 values for cGMP hydrolysis. […] The IC50 values measured for cGMP hydrolysis in blood-stage schizonts were generally similar to those for cAMP hydrolysis (Table 1). […]
The cyclic nucleotide hydrolytic activity of membrane-associated parasite PDE enzymes was measured by a scintillation proximity assay (SPA) ([18]) using lysates of mature P. falciparum schizonts or stage IV/V gametocytes. […] The IC50 values for the compounds were determined using threefold serial dilutions in duplicate. […] The reactions were terminated by addition of 25 μl of PDE SPA beads (PerkinElmer, RPNQ0150), and after 20 min of incubation at room temperature, scintillation was measured using a Wallac 1450 Microbeta Counter (PerkinElmer) for 30 s. […]

malaria parasites = test system: malaria parasites; set-up: method as in PMID 25951195, PMID 33262483; conditions: cited from earlier work
PDE6 = test system: PDE6; set-up: method as in PMID 29743944; conditions: cited from earlier work
P. falciparum Dd2 = P. falciparum Dd2 LDH growth inhibition assay (asexual blood stage); format: cell-based, Plasmodium falciparum; conditions: multidrug-resistant Dd2; geometric mean ×/÷ geometric SD
Protocol: as §1, §2

[2] = test system: P. falciparum stage IV/V gametocytes; experiment: LDH-based gametocyte viability assay; format: cell-based, Plasmodium falciparum; conditions: stage IV to V gametocytes
Protocol: The pLDH assay was performed on late (>95% stage IV/V) gametocytes. Compound dilutions were placed in triplicate in 96-well plates in a final volume of 100 μl per well. DHA and MMV048 were used as positive drug controls. The gametocyte cultures (100 μl per well) were added to the 96-well plates to achieve a final gametocytemia and hematocrit of 2 and 1%, respectively, in a total incubation volume of 200 μl. Plates were incubated at 37°C for 72 hours, followed by the replacement of spent medium with drug-free culture medium (75% medium change) ([54], [55]). Plates were then incubated for a further 72 hours before assessing viability by measuring pLDH activity. Gametocyte viability was determined spectrophotometrically by measuring the activity of pLDH, according to a modified version of a published protocol ([56]). Briefly, 100 μl of Malstat reagent [0.21% (v/v) Triton X-100, 222 mM L-(+)-lactic acid, 54.5 mM tris, 0.166 mM APAD (Sigma-Aldrich, A5251), adjusted to pH 9 with 1 M NaOH] was transferred into a clean 96-well plate. A fixed volume of 20 μl of parasite suspension per well was added to the Malstat plate, followed by the addition of 25 μl of PES/NBT (0.239 mM phenazine ethosulfate and 1.96 mM nitro blue tetrazolium chloride). Absorbance was measured with a Multiskan Ascent 354 multiplate scanner (Thermo LabSystems, Finland) at 620 nm.

[3] = test system: P. falciparum stage V gametocytes (male gamete formation); experiment: Exflagellation (male gamete formation) inhibition assay; format: cell-based, Plasmodium falciparum; conditions: 2 μM, 48 hours
Protocol: The exflagellation inhibition assay was performed by capturing movement of exflagellation centers over time by video microscopy [adapted from a reported protocol ([52])]. For this carry-over format, mature stage V gametocytes were treated with 2 μM of each compound for 48 hours before induction of exflagellation in the presence of compound. To evaluate compound dose response, gametocytes were treated similarly at a set of concentrations representing a fourfold serial dilution. Mature gametocyte cultures (>95% stage V; 500 μl) were centrifuged at 3500 rpm for 30 s, and the pellet was resuspended in 30 μl of ookinete medium [RPMI 1640 medium containing L-glutamine (Sigma-Aldrich, R6504), gentamycin (0.024 mg/ml; HyClone, SV30080.01), 202 μM hypoxanthine (Sigma-Aldrich, H9636), 25 mM Hepes (Sigma-Aldrich, H4034), 0.2% glucose (Sigma-Aldrich, G6152), and 0.5% (w/v) AlbuMAX II (Invitrogen, Paisley, UK), supplemented with 100 μM XA and 20% human serum]. The activated culture (10 μl) was introduced into a Neubauer chamber and placed on the microscope platform to settle homogenously. Time was noted as time zero (T0), and the chamber was incubated at room temperature. Movement was recorded by video microscopy using a Carl Zeiss NT 6V/10W Stab microscope, fitted with a MicroCapture camera at 10× magnification, and then quantified by a semiautomated method, a modification of the method described previously ([53]). A series of 15 videos of 8 to 10 s each were captured at random locations between 15 and 22.5 min after incubation. Each video was analyzed using Icy bioimage analysis software to quantify the number of exflagellating centers. Compound IC50 values were determined with nonlinear curve fitting (GraphPad Prism 6), normalized to maximum and minimum inhibition.

[4] = test system: P. falciparum stage V gametocytes (female gamete formation); experiment: Female gamete formation inhibition assay; format: cell-based, Plasmodium falciparum; conditions: 2 μM, 48 hours
Protocol: Mature gametocytes (>95% stage V) were treated with compounds (2 μM) for 48 hours before stimulating female gamete formation. To evaluate compound dose response, gametocytes were treated similarly at set concentrations representing a fourfold serial dilution. Female gamete activation was induced by both a temperature drop and the addition of 100 μM XA. Monoclonal anti-Pfs25 antibody (BEI Resources, catalog number MRA-28; 1:1000 dilution) conjugated to fluorescein isothiocyanate was used to detect female gametes. Image acquisition was performed using a Zeiss Axio Lab.A1 epifluorescence microscope with a 100/1.4 numerical aperture oil immersion objective and a Zeiss Axiocam 202 mono digital camera. Using a 100× objective, 30 images were taken per sample and analyzed manually. The number, size, roundness, and intensity of fluorescence of activated female gametocytes were evaluated. Compound IC50 values were determined with nonlinear curve fitting (GraphPad Prism 6), normalized to maximum and minimum inhibition.

[5] = test system: P. falciparum clinical isolates from Porto Velho, Brazil; experiment: Ex vivo schizont maturation assay, Brazilian clinical isolates; format: cell-based, Plasmodium falciparum; conditions: eight Brazilian isolates; read-out: Median EC50, clinical isolates
Protocol: (§3) Only monoinfected patients with P. falciparum with parasitemia between 2000 and 80,000 parasites/μl and with at least 70% of ring-stage parasites were recruited. Patients who had used an antimalarial in the previous month and/or presented with symptoms of severe malaria were excluded from the study. The study cohort comprised 24 patients living in this highly endemic area. A peripheral venous blood sample (5 ml) was collected from each individual by venipuncture in heparin-containing tubes and immediately used in the ex vivo drug susceptibility assay using preprepared plates containing diluted antimalarial compounds. […] Last, 20 μl of each dilution was transferred into the ex vivo assay plate and diluted 10-fold into the final assay medium containing parasites. For the infected blood preparation, 5 ml of whole blood was centrifuged at 800g for 10 min, and the plasma and buffy coat were removed. […] Control assays on a 3D7 laboratory isolate were performed with medium supplemented with human serum (20%). The iRBC (180 μl per well) were distributed in the predosed drug plate. […] Control wells containing drug-free iRBCs were cultured with complete medium. The parasite-drug incubation was terminated when 40% of the ring stages reached the schizont stage (at least three distinct nuclei per parasite) in the drug-free control wells. Thick blood films were then made from each well, dried, stained with 5% Giemsa solution for 30 min, and examined microscopically. The number of schizonts per 200 asexual-stage parasites was determined for each drug concentration and then normalized by comparing with the schizont number in the drug-free control wells [considered as 100% ([64])]. The half-maximal drug inhibitory response (EC50) was estimated by curve fitting using software from the OriginLab Corporation, Northampton, MA, USA and comparing with parasite growth in the drug-free controls.

P. falciparum 3D7 [6] = experiment: Ex vivo schizont maturation assay, 3D7 control (Brazil); format: cell-based, Plasmodium falciparum; conditions: tested in parallel with Brazilian isolates, 20% human serum
Protocol: as §3, with “The parasite-drug incubation was terminated when 40% of the ring stages reached the schizont stage (at least three distinct nuclei per parasite) in the drug-free control wells. Thick blood films were then made from each well, dried, stained with 5% Giemsa solution for 30 min, and examined microscopically.” left out, “The half-maximal drug inhibitory response (EC50) was estimated by curve fitting using software from the OriginLab Corporation, Northampton, MA, USA and comparing with parasite growth in the drug-free controls.” left out

P. falciparum ABS = conditions: read-out: EC50 P. falciparum ABS growth inhibition; cited from earlier work
recombinant human PDE9 = test system: recombinant human PDE9; set-up: method as in PMID 25555060, PMID 21766240; conditions: cited from earlier work

SMILES	EC50 (P. falciparum 3D7 [1]) [nM]	IC50 (PDEβ) [nM]	IC50 against malaria parasites (malaria parasites)	Selectivity (PDE5 over PDE6) (PDE6) [fold]	EC50 (P. falciparum Dd2) [nM]	% inhibition gametocyte viability at 15 μM [2] [%]	% inhibition of exflagellation at 2 μM [3] [%]	% inhibition of female gamete formation at 2 μM [4] [%]	EC50 [5] [nM]	EC50 (P. falciparum 3D7 [6]) [nM]	EC50 (P. falciparum ABS) [nM]	Potency against recombinant human PDE9 (recombinant human PDE9) [nM]
CCCc1nn(C)c2c(=O)[nH]c(-c3cc(S(=O)(=O)N4CCN(C)CC4)ccc3OCC)nc12 [sildenafil]	> 25000	> 10000	mid-to-high micromolar range	< 10								
CCc1c2nc(-c3cc(C(=O)NC(C)C)cnc3OCC(C)C)[nH]c(=O)c2nn1CCOC [SAL-0010255]					126	40.4 ± 3.1	48.8 ± 25.3	66.7 ± 1.8	157	89		
CC(C)c1n[nH]c2c(=O)[nH]c(Cc3ccccc3)nc12 [BIPPO, 5-benzyl-3-isopropyl-1H-pyrazolo[4,3-d]pyrimidin-7(6H)-one]		9									400	30
